Experimental data from the supplement of paper PMC3621838.
± gives the standard deviation of the averaged measurements.

Test system: HEK293 NF-kB-luciferase reporter cells
Test: NF-kB luciferase reporter activity, robust Z-score vs plate median (robust Z-score (log luminescence)); higher = stronger NF-kB reporter activation
Conditions: TNF treatment time 8.5 h, transfection time 72 h
Protocol: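 Primary screen of an Ambion Pre-miR miRNA mimic library (miRBase v8.0, 1.6 pmol/well, 384-well, duplicate) reverse-transfected into HEK293 cells stably expressing a 5x NF-kB firefly luciferase reporter. After 72 h the cells were treated with vehicle or TNF (40 ng/mL) for 8.5 h and luminescence was read (BriteLite). Raw luminescence was log-transformed and converted to a robust Z-score per plate: (x - plate median)/plate MAD. Sequence given is the mature miRNA strand of the double-stranded mimic.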

Row | Sequence | NF-kB luciferase reporter activity (TNF 0 ng/mL) | NF-kB luciferase reporter activity (TNF 40 ng/mL)
1 | AAAAGCUGGGUUGAGAGGGCGAA | -0.418 ± 0.33 | -0.74 ± 0.12
2 | AAAAUGGUUCCCUUUAGAGUGUU | -1.7 ± 0.2 | -2.14 ± 0.057
3 | AAACAAACAUGGUGCACUUCUUU | -1.38 ± 0.64 | -0.235 ± 0.099
4 | AAACCGUUACCAUUACUGAGUUU | 1.13 ± 0.58 | 0.947 ± 0.054
5 | AAAGCGCUUCCCUUCAGAGUGU | 0.00327 ± 0.13 | 0.467 ± 0.04
6 | AAAGCGCUUCCCUUUGCUGGA | -0.603 ± 0.07 | 0.608 ± 0.072
7 | AAAGCGCUUCUCUUUAGAGGA | -0.221 ± 1.4 | 0.82217 ± 0.00059
8 | AAAGUGCAUCCUUUUAGAGGUUU | -0.831 ± 1 | -0.425 ± 0.04
9 | AAAGUGCAUCCUUUUAGAGUGUUAC | -1.8 ± 0.56 | -0.116 ± 0.027
10 | AAAGUGCAUCUUUUUAGAGGAU | -0.977 ± 0.6 | -0.416 ± 0.079
11 | AAAGUGCCUCCUUUUAGAGUGU | -1.14 ± 0.07 | -0.561 ± 0.048
12 | AAAGUGCUGCGACAUUUGAGCGU | -0.434 ± 0.93 | -1.06 ± 0.19
13 | AAAGUGCUUCCCUUUGGACUGU | -1.29 ± 0.15 | -0.57 ± 0.16
14 | AAAGUGCUUCCUUUUAGAGGC | -1.48 ± 0.11 | -0.83 ± 0.031
15 | AAAGUGCUUCCUUUUAGAGGG | -1.32 ± 0.33 | -0.578 ± 0.11
16 | AAAGUGCUUCCUUUUAGAGGGUU | -1.51 ± 0.46 | -0.653 ± 0.033
17 | AAAGUGCUUCCUUUUUGAGGG | -1.7 ± 0.2 | -0.497 ± 0.23
18 | AAAGUGCUUCUCUUUGGUGGGUU | -1.14 ± 0.07 | -0.144 ± 0.11
19 | AACACACCUGGUUAACCUCUUU | -1.14 ± 0.07 | 0.254 ± 0.15
20 | AACAUUCAUUGUUGUCGGUGGGUU | 0.371 ± 0.31 | -0.631 ± 0.082
21 | AACGCACUUCCCUUUAGAGUGU | 0.317 ± 0.45 | 0.826 ± 0.073
22 | AACGCGCUUCCCUAUAGAGGG | -0.412 ± 0.44 | 0.629 ± 0.15

Row | Sequence | NF-kB luciferase reporter activity (TNF 0 ng/mL) | NF-kB luciferase reporter activity (TNF 40 ng/mL)
23 | AACUGGCCCUCAAAGUCCCGCUUU | 1.11 ± 0.46 | -0.934 ± 0.19
24 | AACUGGCCUACAAAGUCCCAG | 0.721 ± 0.19 | -1.18 ± 0.17
25 | AAGUGCUGUCAUAGCUGAGGUC | -0.706 ± 0.31 | -0.185 ± 0.21
26 | AAGUGCUUCCUUUUAGAGGGUU | -1.7 ± 0.2 | -1.29 ± 0.042
27 | AAUAAUACAUGGUUGAUCUUU | -0.785 ± 0.09 | 0.0536 ± 0.043
28 | AAUAUAACACAGAUGGCCUGU | 0.148 ± 0.35 | 0.874 ± 0.29
29 | AAUCAUACACGGUUGACCUAUU | 0 | -0.0786 ± 0.0065
30 | AAUCAUACAGGGACAUCCAGUU | -0.326 ± 0.46 | 0.117 ± 0.12
31 | AAUCCUUGGAACCUAGGUGUGAGU | 0.598 ± 0.14 | 0.0708 ± 0.057
32 | AAUCCUUUGUCCCUGGGUGAGA | 0.375 ± 0.22 | 0.638 ± 0.062
33 | AAUCGUACAGGGUCAUCCACUU | -0.187 ± 0.52 | 0.638 ± 0.17
34 | AAUUGCACUUUAGCAAUGGUGA | 0.232 ± 0.073 | -0.707 ± 0.14
35 | ACAAAGUGCUUCCCUUUAGAGU | -1.29 ± 0.15 | -0.471 ± 0.097
36 | ACAAAGUGCUUCCCUUUAGAGUGU | -0.845 ± 0.78 | -0.799 ± 0.018
37 | ACAUAGAGGAAAUUCCACGUUU | 0.113 ± 0.85 | -0.459 ± 0.0079
38 | ACUAGACUGAAGCUCCUUGAGG | -0.0115 ± 0.13 | 0.7434 ± 0.0017
39 | ACUCAAAAUGGGGGCGCUUUCC | -0.706 ± 0.31 | 0.907 ± 0.14
40 | ACUGCCCUAAGUGCUCCUUCU | 2.18 ± 0.41 | 0.608 ± 0.041
41 | ACUUCACCUGGUCCACUAGCCGU | 0.123 ± 0.3 | 0.86 ± 0.097
42 | ACUUUAACAUGGAAGUGCUUUCU | -0.37 ± 0.4 | 0.272 ± 0.026
43 | AGACCCUGGUCUGCACUCUAU | 0.885 ± 0.42 | 0.7 ± 0.065
44 | AGAGGCUGGCCGUGAUGAAUUC | 0.912 ± 0.72 | -1.96 ± 0.079
